According to PubChem BioAssay AID1963430 (Molecular Pharmacology Branch, DTP, NCI, 2024):
Values joined by “and” are separate entries in the source; they are usually repeats but may differ in a detail not shown here. Equal values may be shown once.

System: 521955-158-R2-J5-PDC complex spheroid growth, % test/control
Test: Anticancer human tumor 521955-158-R2-J5-PDC patient-derived pancreatic carcinoma cell line growth inhibition [Asc]
Details: for viability, T/C: stronger effect = lower value
Summary of the method: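 Concentration series start at each agent's clinical Cmax, or at 10 microM when none is established, and drop in half-log steps; agents are applied alone or together to complex spheroids built with HUVEC and hMSC.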

[1] = curve of first compound, second compound 0.03 µM
[2] = curve of first compound, second compound 0.0949 µM
[3] = curve of first compound, second compound 0.3 µM
[4] = curve of first compound, second compound 0.949 µM
[5] = curve of first compound, second compound 3 µM
[6] = second compound 0.03 µM, first compound 0.00316 µM
[7] = second compound 0.03 µM, first compound 0.01 µM
[8] = second compound 0.03 µM, first compound 0.0316 µM
[9] = second compound 0.03 µM, first compound 0.1 µM
[10] = second compound 0.0949 µM, first compound 0.00316 µM
[11] = second compound 0.0949 µM, first compound 0.01 µM
[12] = second compound 0.0949 µM, first compound 0.0316 µM
[13] = second compound 0.0949 µM, first compound 0.1 µM
[14] = second compound 0.3 µM, first compound 0.00316 µM
[15] = second compound 0.3 µM, first compound 0.01 µM
[16] = second compound 0.3 µM, first compound 0.0316 µM
[17] = second compound 0.3 µM, first compound 0.1 µM
[18] = second compound 0.949 µM, first compound 0.00316 µM
[19] = second compound 0.949 µM, first compound 0.01 µM
[20] = second compound 0.949 µM, first compound 0.0316 µM
[21] = second compound 0.949 µM, first compound 0.1 µM
[22] = second compound 3 µM, first compound 0.00316 µM
[23] = second compound 3 µM, first compound 0.01 µM
[24] = second compound 3 µM, first compound 0.0316 µM
[25] = second compound 3 µM, first compound 0.1 µM
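Also: spheroids exposed to agents for 7 days before readout.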
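For viability, T/C in this document: 100% = DMSO vehicle control viability.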

With `NC(=O)C(=Cn1cnc(-c2cc(C(F)(F)F)cc(C(F)(F)F)c2)n1)c1cncnc1` + Cc1c(S(C)(=O)=O)c(-c2cc(F)cc(N3CCN(c4ccc(NS(=O)(=O)c5ccc(NC(CCN6CCC(C(=O)OCCCP(=O)(O)O)CC6)CSc6ccccc6)c(S(=O)(=O)C(F)(F)F)c5)cc4)CC3)c2)c(-c2ccc(Cl)cc2)n1C(C)C the IC50 (curve of first compound, second compound 0.1 µM) was 1.94 nM, the IC50 (curve of first compound, second compound 0.316 µM) was less than 0.949 nM and the IC50 (curve of first compound, second compound 1 µM) was 1.36 nM. It also gave an IC50 (curve of first compound, second compound 3.16 µM) of 1.25 nM, an IC50 (curve of first compound, second compound 10 µM) of 25.3 nM and a viability, T/C (second compound 0.1 µM, first compound 0.000949 µM) of 77.2%. For the same compound, the viability, T/C (second compound 0.1 µM, first compound 0.003 µM) was 33.3%, the viability, T/C (second compound 0.1 µM, first compound 0.00949 µM) was 28.4% and the viability, T/C (second compound 0.1 µM, first compound 0.03 µM) was 20.9%. The viability, T/C (second compound 0.1 µM, first compound 0.0949 µM) was 22.3%, the viability, T/C (second compound 0.1 µM, first compound 0.3 µM) was 28% and the viability, T/C (second compound 0.316 µM, first compound 0.000949 µM) was 44.5%. The viability, T/C (second compound 0.316 µM, first compound 0.003 µM) was 48%, the viability, T/C (second compound 0.316 µM, first compound 0.00949 µM) was 30% and the viability, T/C (second compound 0.316 µM, first compound 0.03 µM) was 23.2%. The viability, T/C (second compound 0.316 µM, first compound 0.0949 µM) was 17.2%, the viability, T/C (second compound 0.316 µM, first compound 0.3 µM) was 24.1% and the viability, T/C (second compound 1 µM, first compound 0.000949 µM) was 54.3%. The viability, T/C (second compound 1 µM, first compound 0.003 µM) was 40.5%, the viability, T/C (second compound 1 µM, first compound 0.00949 µM) was 21.4% and the viability, T/C (second compound 1 µM, first compound 0.03 µM) was 17.7%. It also gave a viability, T/C (second compound 1 µM, first compound 0.0949 µM) of 14.4%, a viability, T/C (second compound 1 µM, first compound 0.3 µM) of 14.8% and a viability, T/C (second compound 3.16 µM, first compound 0.000949 µM) of 53.2%. It also gave a viability, T/C (second compound 3.16 µM, first compound 0.003 µM) of 40%, a viability, T/C (second compound 3.16 µM, first compound 0.00949 µM) of 22.6% and a viability, T/C (second compound 3.16 µM, first compound 0.03 µM) of 13.5%. It also gave a viability, T/C (second compound 3.16 µM, first compound 0.0949 µM) of 9.75%, a viability, T/C (second compound 3.16 µM, first compound 0.3 µM) of 13.1% and a viability, T/C (second compound 10 µM, first compound 0.000949 µM) of 143%. For the same compound, the viability, T/C (second compound 10 µM, first compound 0.003 µM) was 106%, the viability, T/C (second compound 10 µM, first compound 0.00949 µM) was 91.4% and the viability, T/C (second compound 10 µM, first compound 0.03 µM) was 40.3%. It also gave a viability, T/C (second compound 10 µM, first compound 0.0949 µM) of 17.1% and a viability, T/C (second compound 10 µM, first compound 0.3 µM) of 10.8%.
In the case of `O=C(c1ccc(F)c(F)c1Nc1ccc(I)cc1F)N1CC(O)([C@@H]2CCCCN2)C1` + CCN1C(C(=O)NC23CCC(C(=O)O)(CC2)CC3)C(c2cccc(Cl)c2F)C2(C(=O)Nc3cc(Cl)ccc32)C12CCCCC2, the IC50 [1] is reported as 77 nM, the IC50 [2] is reported as 39.4 nM and the IC50 [3] is reported as 165 nM. It also gave an IC50 [4] of 156 nM, an IC50 [5] of 620 nM and a viability, T/C [6] of 65.8%. The viability, T/C [7] was 56%, the viability, T/C [8] was 62.5% and the viability, T/C [9] was 45.1%. For the same compound, the viability, T/C (second compound 0.03 µM, first compound 0.316 µM) was 37.2%, the viability, T/C (second compound 0.03 µM, first compound 1 µM) was 29.1% and the viability, T/C [10] was 80.7%. The viability, T/C [11] was 80.1%, the viability, T/C [12] was 51.1% and the viability, T/C [13] was 51.7%. The viability, T/C (second compound 0.0949 µM, first compound 0.316 µM) was 43.1%, the viability, T/C (second compound 0.0949 µM, first compound 1 µM) was 35.4% and the viability, T/C [14] was 64.5%. For the same compound, the viability, T/C [15] was 83.3%, the viability, T/C [16] was 85.2% and the viability, T/C [17] was 60%. For the same compound, the viability, T/C (second compound 0.3 µM, first compound 0.316 µM) was 40.9%, the viability, T/C (second compound 0.3 µM, first compound 1 µM) was 33.1% and the viability, T/C [18] was 93.3%. For the same compound, the viability, T/C [19] was 91.3%, the viability, T/C [20] was 82.4% and the viability, T/C [21] was 57.3%. It also gave a viability, T/C (second compound 0.949 µM, first compound 0.316 µM) of 37.8%, a viability, T/C (second compound 0.949 µM, first compound 1 µM) of 38.1% and a viability, T/C [22] of 107%. The viability, T/C [23] was 102%, the viability, T/C [24] was 80% and the viability, T/C [25] was 71.8%. The viability, T/C (second compound 3 µM, first compound 0.316 µM) was 61.8% and the viability, T/C (second compound 3 µM, first compound 1 µM) was 42.5%.
`COc1c(OCCCN2CCOCC2)ccc2c3n(c(=NC(=O)c4cnc(N)nc4)nc12)CCN3` was tested, and the viability, T/C (compound 0.00316 µM) was 53.2% and 58.9% and 68.7%, the viability, T/C (compound 0.01 µM) was 51.9% and 45.7% and 44% and the viability, T/C (compound 0.0316 µM) was 40.8% and 38.2% and 34.3%. For the same compound, the viability, T/C (compound 0.1 µM) was 30.1% and 31.6% and 29.1%, the viability, T/C (compound 0.316 µM) was 18.9% and 20% and 19.9% and the viability, T/C (compound 1 µM) was 15.3% and 16.1% and 14.2%. For the same compound, the IC50 (curve of compound) was 10.7 nM and 7.52 nM and 8.61 nM.
For `C=CC(=O)N1CCN(c2nc(=O)n(-c3c(C)ccnc3C(C)C)c3nc(-c4c(O)cccc4F)c(F)cc23)C(C)C1` (centres undefined), the viability, T/C (compound 0.0316 µM) was 87.7% and 88.9% and 88.2%, the viability, T/C (compound 0.1 µM) was 72.1% and 90.3% and 87.8% and the viability, T/C (compound 0.316 µM) was 76.3% and 92.3% and 90.2%. For the same compound, the viability, T/C (compound 1 µM) was 108% and 87.7% and 113%, the viability, T/C (compound 3.16 µM) was 102% and 121% and 112% and the viability, T/C (compound 10 µM) was 101% (2×) and 95.5%. The IC50 (curve of compound) was greater than 10000 nM.
Work on `NC1CCC(NC2CC2c2ccccc2)CC1` (centres undefined) + CCN1C(C(=O)NC23CCC(C(=O)O)(CC2)CC3)C(c2cccc(Cl)c2F)C2(C(=O)Nc3cc(Cl)ccc32)C12CCCCC2 yielded an IC50 [1] greater than 100 nM, an IC50 [2] greater than 100 nM and an IC50 [3] greater than 100 nM. The IC50 [4] was greater than 100 nM, the IC50 [5] was greater than 100 nM and the viability, T/C (second compound 0.03 µM, first compound 0.000316 µM) was 59%. The viability, T/C (second compound 0.03 µM, first compound 0.001 µM) was 52.7%, the viability, T/C [6] was 64.8% and the viability, T/C [7] was 59.2%. The viability, T/C [8] was 57.4%, the viability, T/C [9] was 46.1% and the viability, T/C (second compound 0.0949 µM, first compound 0.000316 µM) was 55.9%. It also gave a viability, T/C (second compound 0.0949 µM, first compound 0.001 µM) of 55.1%, a viability, T/C [10] of 69.4% and a viability, T/C [11] of 59.3%. For the same compound, the viability, T/C [12] was 65%, the viability, T/C [13] was 65.8% and the viability, T/C (second compound 0.3 µM, first compound 0.000316 µM) was 58.5%. The viability, T/C (second compound 0.3 µM, first compound 0.001 µM) was 44.1%, the viability, T/C [14] was 58.8% and the viability, T/C [15] was 65.8%. It also gave a viability, T/C [16] of 48.8%, a viability, T/C [17] of 71.4% and a viability, T/C (second compound 0.949 µM, first compound 0.000316 µM) of 58.5%. It also gave a viability, T/C (second compound 0.949 µM, first compound 0.001 µM) of 66.8%, a viability, T/C [18] of 74% and a viability, T/C [19] of 67.5%. It also gave a viability, T/C [20] of 62.5%, a viability, T/C [21] of 77.4% and a viability, T/C (second compound 3 µM, first compound 0.000316 µM) of 84.7%. It also gave a viability, T/C (second compound 3 µM, first compound 0.001 µM) of 109%, a viability, T/C [22] of 83.1% and a viability, T/C [23] of 113%. For the same compound, the viability, T/C [24] was 92.8% and the viability, T/C [25] was 91.7%.
